Measurements: the NIST ThermoML archive (doi:10.1016/j.jct.2018.05.027)

Test: xn = mol fraction of the nth substance listed
Conditions: Liquid, Vibrating wire viscometry

Cc1ccc(C)c(C)c1 [1,2,4-trimethylbenzene] + CCC(C)O
viscosity [mPa·s]
Conditions	x2 = 0.3011	x2 = 0.5001	x2 = 0.7999
333.15 K, 100 kPa	0.539	0.5777	0.7185
333.15 K, 1000 kPa	0.5411	0.5881	0.7301
333.15 K, 5000 kPa	0.571	0.6122	0.7583
333.15 K, 10000 kPa	0.5928	0.6383	0.7963
333.15 K, 20000 kPa	0.634	0.6899	0.8656
333.15 K, 30000 kPa	0.6817	0.739	0.9569
333.15 K, 40000 kPa	0.7313	0.7961	1.039
333.15 K, 50000 kPa	0.784	0.8558	1.13
333.15 K, 60000 kPa	0.8388	0.9176	1.219
333.15 K, 70000 kPa	0.8962	0.9822	1.321
333.15 K, 80000 kPa	0.9559	1.046	1.424
333.15 K, 100000 kPa	1.089	1.196	1.653
333.15 K, 120000 kPa	1.238	1.366	1.898
333.15 K, 140000 kPa	1.385	1.528	2.144
353.15 K, 100 kPa	0.43	0.4439	0.4963
353.15 K, 1000 kPa	0.436	0.4481	0.5
353.15 K, 5000 kPa	0.4507	0.467	0.5157
353.15 K, 10000 kPa	0.4678	0.4891	0.5386
353.15 K, 20000 kPa	0.4988	0.5215	0.584
353.15 K, 30000 kPa	0.5358	0.5615	0.6316
353.15 K, 40000 kPa	0.57	0.5952	0.6809
353.15 K, 50000 kPa	0.605	0.6372	0.7349
353.15 K, 60000 kPa	0.645	0.6813	0.7906
353.15 K, 70000 kPa	0.6863	0.726	0.849
353.15 K, 80000 kPa	0.7294	0.7743	0.9092
353.15 K, 100000 kPa	0.821	0.871	1.04
353.15 K, 120000 kPa	0.9204	0.9782	1.175
353.15 K, 140000 kPa	1.038	1.093	1.339
